Reference: PMC12645437, “Orthogonal IMiD-Degron Pairs Induce Selective Protein Degradation in Cells” (ACS Chemical Biology, 2025)

What was measured:
[1] = tested on: library of 8380 IKZF3 degrons fused to EGFP in Jurkat cells; assay: Pooled mutant ZF degron library screen (FACS EGFPlow vs EGFP+, NGS), 18 h; type: cell-based, human;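 for logFC: Log2 fold change of EGFPlow over EGFP+ representation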
[2] = biological target: T1, Q147A mutant degron (ANQS) fused to EGFP (Homo sapiens, UniProt Q96SW2+Q9UKT9, Q147A); assay: Ratiometric EGFP:mCherry flow cytometry degradation assay, 18 h; type: cell-based; details: Jurkat, read-out: DMax Q147A/%
T1 construct: pLVX-Sprout-IKZF3 130-189aa Q147A (ANQS); expressed in transfected cells

[3] = tested on: Jurkat cells; assay: TMTpro quantitative proteomics, 16 h; details: for Scaled value (to 150), replicate 01 / Scaled value (to 150), replicate 02 / Scaled value (to 150), replicate 03: Jurkat whole cell extracts, TMTpro SPS-MS3
Experimental: Quantitative proteomics screens were carried out in untransduced Jurkat cells, embryonic stem cells (ESCs), and the multiple myeloma cell line, MM.1S. We used Jurkat cells, as our work up to this point had employed this cell line, and we selected ESCs and MM.1S cells as they express known CRBN neosubstrates, including IKZF1, IKZF3, RAB28, RNF166, SALL4, ZFP91, and ZNF827.
Proteomics - cell lysis and protein digestion
The viability of Jurkat cells was tested after 16-h treatment with corresponding chemicals
viable cells in each condition. Next, ~10^7 cells per condition were collected by centrifugation (1000 rpm), washed twice with ice-cold PBS, and lysed in RIPA buffer [50 mM HEPES pH 7.4, 150 mM NaCl, 1% sodium deoxycholate, 1% NP-40, 0.1% SDS, 10 mM sodium pyrophosphate, 10 mM β-glycerophosphate, 2.5 mM MgCl2, 200 µM TCEP, phosphatase and protease inhibitor cocktail (in-house)], to produce whole cell extracts. Whole-cell extracts were sonicated, and protein concentrations were determined using the Bradford assay. Protein extracts (100 µg) were subjected to disulfide bond reduction with 5 mM TCEP (10 min) and alkylation with 25 mM chloroacetamide (20 min). Methanol–chloroform precipitation was performed prior to protease digestion. In brief, four parts of neat methanol were added to each sample and vortexed, one part chloroform was added to the sample and vortexed, and finally, three parts water was added to the sample and vortexed. The sample was centrifuged at 8000 rpm for 5 min at room temperature and subsequently washed twice with 100% methanol. Samples were resuspended in 100 mM EPPS pH8.5 containing
0.1% RapiGest and digested at 37 °C for 6 h with trypsin at a 100:1 protein-to-protease ratio.
Samples were then subjected to TMTpro
labeling. The preparation of MM1S cell extracts was conducted using the same procedure as for
Jurkat cells. ESC cells were plated onto 6 cm dishes 24 hours prior to the chemical treatment.
Following the chemical treatment, the cells on the dish were washed with DPBS four times, after
which RIPA buffer was added directly to the dish, and the lysate was collected using a scraper.
The whole cell lysates were then processed similarly to the Jurkat cell lysates.
Proteomics - Tandem mass tag labeling
Proline-based reporter isobaric Tandem Mass Tag (TMTpro) labeling of dried peptide samples
resuspended in 100 mM EPPS pH 8.5, was carried out as follows. TMTpro reagent was added to
samples (100 µg peptide), along with acetonitrile, to achieve a final acetonitrile concentration of
approximately 30% (v/v). Following incubation at room temperature for 1 h, the labeling efficiency
of a small aliquot was tested. The reaction was then quenched with hydroxylamine to a final
concentration of 0.5% (v/v) for 15 min. The TMTpro-labeled samples were pooled together at a
1:1 ratio. The sample was vacuum centrifuged to near dryness and subjected to C18 solid-phase
The dried TMTpro-labeled sample was resuspended in 100 μL of 10 mM NH4HCO3 pH 8.0 and
fractionated using basic pH reverse phase HPLC 40. Briefly, samples were offline fractionated over
a 90 min run, into 96 fractions by high pH reverse-phase HPLC (Agilent LC1260) through an aeris
peptide xb-c18 column (Phenomenex; 250 mm × 3.6 mm) for total proteome with mobile phase A
containing 5% acetonitrile and 10 mM NH4HCO3, and mobile phase B containing 90% acetonitrile

[4] = protein AADAT isoform 2 (Q8N5Z0-2)

T1 sequence (Q9UKT9 130-189 Q147A): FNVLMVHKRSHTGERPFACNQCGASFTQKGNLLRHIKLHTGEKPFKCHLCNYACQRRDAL
T1 sequence (Q96SW2 whole entry, the tested form may be a part): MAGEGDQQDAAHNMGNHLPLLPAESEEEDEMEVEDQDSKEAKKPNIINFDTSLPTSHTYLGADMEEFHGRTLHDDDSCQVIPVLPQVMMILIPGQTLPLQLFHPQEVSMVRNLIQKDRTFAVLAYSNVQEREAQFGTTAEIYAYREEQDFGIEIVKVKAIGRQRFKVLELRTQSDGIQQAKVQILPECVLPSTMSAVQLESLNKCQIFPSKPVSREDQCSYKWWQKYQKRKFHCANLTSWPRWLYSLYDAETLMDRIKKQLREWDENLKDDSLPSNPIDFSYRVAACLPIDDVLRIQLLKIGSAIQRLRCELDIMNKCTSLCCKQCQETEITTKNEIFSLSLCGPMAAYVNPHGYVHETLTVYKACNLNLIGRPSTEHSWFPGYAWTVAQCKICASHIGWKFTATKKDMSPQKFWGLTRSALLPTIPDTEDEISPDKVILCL
T1 sequence (Q16531 whole entry partner, the tested form may be a part): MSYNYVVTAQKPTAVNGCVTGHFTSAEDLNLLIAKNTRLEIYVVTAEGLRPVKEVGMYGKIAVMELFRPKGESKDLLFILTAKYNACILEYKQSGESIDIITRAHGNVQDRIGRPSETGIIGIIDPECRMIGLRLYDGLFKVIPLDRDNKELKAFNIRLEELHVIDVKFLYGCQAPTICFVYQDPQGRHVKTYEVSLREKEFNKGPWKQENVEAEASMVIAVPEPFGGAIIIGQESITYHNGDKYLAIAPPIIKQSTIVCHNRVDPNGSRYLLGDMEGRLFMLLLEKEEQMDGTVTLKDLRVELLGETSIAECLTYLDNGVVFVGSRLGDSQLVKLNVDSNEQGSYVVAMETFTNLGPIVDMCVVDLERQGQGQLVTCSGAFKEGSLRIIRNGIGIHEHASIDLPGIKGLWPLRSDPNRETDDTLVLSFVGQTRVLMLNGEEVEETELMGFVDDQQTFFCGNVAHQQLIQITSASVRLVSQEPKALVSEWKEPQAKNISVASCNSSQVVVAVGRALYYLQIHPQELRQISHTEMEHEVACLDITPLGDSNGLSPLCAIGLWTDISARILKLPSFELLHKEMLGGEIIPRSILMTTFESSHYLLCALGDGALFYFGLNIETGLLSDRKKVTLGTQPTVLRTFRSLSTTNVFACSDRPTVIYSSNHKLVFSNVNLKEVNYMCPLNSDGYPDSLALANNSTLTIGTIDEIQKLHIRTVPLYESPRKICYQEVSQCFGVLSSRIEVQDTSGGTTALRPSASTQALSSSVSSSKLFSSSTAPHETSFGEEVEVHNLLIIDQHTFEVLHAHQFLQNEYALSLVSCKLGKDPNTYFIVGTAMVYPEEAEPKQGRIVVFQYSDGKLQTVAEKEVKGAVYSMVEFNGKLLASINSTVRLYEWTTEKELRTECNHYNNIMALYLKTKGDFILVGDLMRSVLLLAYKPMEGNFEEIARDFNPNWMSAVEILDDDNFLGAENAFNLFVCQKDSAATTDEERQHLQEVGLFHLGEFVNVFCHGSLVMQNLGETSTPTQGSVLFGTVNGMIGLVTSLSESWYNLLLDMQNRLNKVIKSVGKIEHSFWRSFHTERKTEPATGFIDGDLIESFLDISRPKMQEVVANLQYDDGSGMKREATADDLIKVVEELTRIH

- Dmax [2]: 82%
Compound: O=C1CCC(N2C(=O)c3ccccc3C2=O)C(=O)N1 (centres unmarked) [Compound 1, thalidomide, reference compound]
- logFC ([1]; degron residues 146/147/149/150/152/153/154/155/167: FADVGAHFL): -2.25
- logFC ([1]; degron residues 146/147/149/150/152/153/154/155/167: FADVGAIFL): -1.83
- logFC ([1]; degron residues 146/147/149/150/152/153/154/155/167: FADVGAKFL): -1.45
- logFC ([1]; degron residues 146/147/149/150/152/153/154/155/167: FADVGALFL): -2.47
- logFC ([1]; degron residues 146/147/149/150/152/153/154/155/167: FADVGAMFL): -2.29
- logFC ([1]; degron residues 146/147/149/150/152/153/154/155/167: FADVGANFL): -2.15
- logFC ([1]; degron residues 146/147/149/150/152/153/154/155/167: FADVGAPFL): -0.92
- logFC ([1]; degron residues 146/147/149/150/152/153/154/155/167: FADVGAQFL): -1.67
- logFC ([1]; degron residues 146/147/149/150/152/153/154/155/167: FADVGARFL): -1.19
- logFC ([1]; degron residues 146/147/149/150/152/153/154/155/167: FADVGASFL): -1.27
- logFC ([1]; degron residues 146/147/149/150/152/153/154/155/167: FADVGATFL): -1.78
- logFC ([1]; degron residues 146/147/149/150/152/153/154/155/167: FADVGAVFL): -2.08
- logFC ([1]; degron residues 146/147/149/150/152/153/154/155/167: FADVGAWFL): -2.99
- logFC ([1]; degron residues 146/147/149/150/152/153/154/155/167: FADVGAYFL): -2.07
- Log2FC ([1]; degron residues 146/147/149/150/152/153/154/155/167: FQEIGAPFL): 3.7224
- Log2FC ([1]; degron residues 146/147/149/150/152/153/154/155/167: FQEIGARFL): 3.7041
- Log2FC ([1]; degron residues 146/147/149/150/152/153/154/155/167: FQEIGASFL): 3.7484
- Log2FC ([1]; degron residues 146/147/149/150/152/153/154/155/167: FQEVGAQFL): 3.7719
- Log2FC ([1]; degron residues 146/147/149/150/152/153/154/155/167: FQEVGARFL): 3.7061
- Log2FC ([1]; degron residues 146/147/149/150/152/153/154/155/167: FQEVGATFL): 3.7446
- Log2FC ([1]; degron residues 146/147/149/150/152/153/154/155/167: FQEVGAVFL): 3.7106
- Log2FC ([1]; degron residues 146/147/149/150/152/153/154/155/167: FQNIGAIFL): 3.8114
- Log2FC ([1]; degron residues 146/147/149/150/152/153/154/155/167: FQNIGAPFL): 3.7088
- Log2FC ([1]; degron residues 146/147/149/150/152/153/154/155/167: FQNIGATFL, listed as Thal): 3.867
- Log2FC ([1]; degron residues 146/147/149/150/152/153/154/155/167: FQNIGATFL, listed as Thalidomide): 3.8667
- Log2FC ([1]; degron residues 146/147/149/150/152/153/154/155/167: FQPIGACFL): 3.7711
- Log2FC ([1]; degron residues 146/147/149/150/152/153/154/155/167: FQPIGADFL, listed as Thal): 3.806
- Log2FC ([1]; degron residues 146/147/149/150/152/153/154/155/167: FQPIGADFL, listed as Thalidomide): 3.8059
- Log2FC ([1]; degron residues 146/147/149/150/152/153/154/155/167: FQPIGAIFL): 3.7924
- Log2FC ([1]; degron residues 146/147/149/150/152/153/154/155/167: FQPIGASFL (QPIS), listed as Thal): 3.79
- Log2FC ([1]; degron residues 146/147/149/150/152/153/154/155/167: FQPIGASFL (QPIS), listed as Thalidomide): 3.7900
- Log2FC ([1]; degron residues 146/147/149/150/152/153/154/155/167: FQPVGAEFL): 3.7612
- Log2FC ([1]; degron residues 146/147/149/150/152/153/154/155/167: FQPVGAKFL, listed as Thal): 3.962
- Log2FC ([1]; degron residues 146/147/149/150/152/153/154/155/167: FQPVGAKFL, listed as Thalidomide): 3.9618
- Log2FC ([1]; degron residues 146/147/149/150/152/153/154/155/167: FQPVGAPFL, listed as Thal): 3.872
- Log2FC ([1]; degron residues 146/147/149/150/152/153/154/155/167: FQPVGAPFL, listed as Thalidomide): 3.8717
- Log2FC ([1]; degron residues 146/147/149/150/152/153/154/155/167: FQPVGATFL): 3.7941
- Log2FC ([1]; degron residues 146/147/149/150/152/153/154/155/167: FQPVGAVFL): 3.7460
- Log2FC ([1]; degron residues 146/147/149/150/152/153/154/155/167: LQPIGFVCL): 3.7517
- Scaled value (to 150), replicate 01 ([3]; protein A2M (P01023)): 8.46
- Scaled value (to 150), replicate 02 ([3]; protein A2M (P01023)): 13.549
- Scaled value (to 150), replicate 03 ([3]; protein A2M (P01023)): 7.506
- Scaled value (to 150), replicate 01 ([3]; protein AAAS (Q9NRG9)): 10.0487
- Scaled value (to 150), replicate 02 ([3]; protein AAAS (Q9NRG9)): 9.769
- Scaled value (to 150), replicate 03 ([3]; protein AAAS (Q9NRG9)): 10.5105
- Scaled value (to 150), replicate 01 ([3]; protein AACS (Q86V21)): 10.2228
- Scaled value (to 150), replicate 02 ([3]; protein AACS (Q86V21)): 10.5542
- Scaled value (to 150), replicate 03 ([3]; protein AACS (Q86V21)): 9.811
- Scaled value (to 150), replicate 01 [3, 4]: 9.84
- Scaled value (to 150), replicate 02 [3, 4]: 10.2362
- Scaled value (to 150), replicate 03 [3, 4]: 11.2082
- proteins degraded (quantitative proteomics) ([3]; Jurkat, 10 μM, 16 h, 9644 quantified proteins): did not induce major protein degradation
